Laboratory results as given in patent US10392391B2 (Vertex Pharmaceuticals Incorporated, priority 2012, dated 2019).

target: ATR kinase (full-length ATR) (Homo sapiens (Human), UniProt Q13535); test: ATR inhibition assay (radioactive-phosphate incorporation); assay type: biochemical; conditions: not given
Method: Compounds were screened for their ability to inhibit ATR kinase using a radioactive-phosphate incorporation assay. Assays were carried out in a mixture of 50 mM Tris/HCl (pH 7.5), 10 mM MgCl2 and 1 mM DTT. Final substrate concentrations were 10 μM [γ-33P]ATP (3mCi 33P ATP/mmol ATP, Perkin Elmer) and 800 μM target peptide ([…]) (SEQ ID NO:1).
Assays were carried out at 25° C. in the presence of 5 nM full-length ATR. An assay stock buffer solution was prepared containing all of the reagents listed above, with the exception of ATP and the test compound of interest. 13.5 μL of the stock solution was placed in a 96 well plate followed by addition of 2 μL of DMSO stock containing serial dilutions of the test compound (typically starting from a final concentration of 15 μM with 3-fold serial dilutions) in duplicate (final DMSO concentration 7%). The plate was pre-incubated for 10 minutes at 25° C. and the reaction initiated by addition of 15 μL [γ-33P]ATP (final concentration 10 μM).
The reaction was stopped after […] by the addition of 30 μL 0.1M phosphoric acid containing 2 mM ATP. A multiscreen phosphocellulose filter 96-well plate (Millipore, Cat no. MAPHN0B50) was pretreated with 100 μL 0.2M phosphoric acid prior to the addition of […] of the stopped assay mixture. The plate was washed with 5×200 μL 0.2M phosphoric acid. After drying, 100 μL Optiphase ‘SuperMix’ liquid scintillation cocktail (Perkin Elmer) was added to the well prior to scintillation counting (1450 Microbeta Liquid Scintillation Counter, Wallac).
After removing mean background values for all of the data points, Ki(app) data were calculated from non-linear regression analysis of the initial rate data using the Prism software package (GraphPad Prism version 3.0cx for Macintosh, GraphPad Software, San Diego Calif., USA).

Sequence of ATR kinase (full-length ATR) (Q13535 whole entry): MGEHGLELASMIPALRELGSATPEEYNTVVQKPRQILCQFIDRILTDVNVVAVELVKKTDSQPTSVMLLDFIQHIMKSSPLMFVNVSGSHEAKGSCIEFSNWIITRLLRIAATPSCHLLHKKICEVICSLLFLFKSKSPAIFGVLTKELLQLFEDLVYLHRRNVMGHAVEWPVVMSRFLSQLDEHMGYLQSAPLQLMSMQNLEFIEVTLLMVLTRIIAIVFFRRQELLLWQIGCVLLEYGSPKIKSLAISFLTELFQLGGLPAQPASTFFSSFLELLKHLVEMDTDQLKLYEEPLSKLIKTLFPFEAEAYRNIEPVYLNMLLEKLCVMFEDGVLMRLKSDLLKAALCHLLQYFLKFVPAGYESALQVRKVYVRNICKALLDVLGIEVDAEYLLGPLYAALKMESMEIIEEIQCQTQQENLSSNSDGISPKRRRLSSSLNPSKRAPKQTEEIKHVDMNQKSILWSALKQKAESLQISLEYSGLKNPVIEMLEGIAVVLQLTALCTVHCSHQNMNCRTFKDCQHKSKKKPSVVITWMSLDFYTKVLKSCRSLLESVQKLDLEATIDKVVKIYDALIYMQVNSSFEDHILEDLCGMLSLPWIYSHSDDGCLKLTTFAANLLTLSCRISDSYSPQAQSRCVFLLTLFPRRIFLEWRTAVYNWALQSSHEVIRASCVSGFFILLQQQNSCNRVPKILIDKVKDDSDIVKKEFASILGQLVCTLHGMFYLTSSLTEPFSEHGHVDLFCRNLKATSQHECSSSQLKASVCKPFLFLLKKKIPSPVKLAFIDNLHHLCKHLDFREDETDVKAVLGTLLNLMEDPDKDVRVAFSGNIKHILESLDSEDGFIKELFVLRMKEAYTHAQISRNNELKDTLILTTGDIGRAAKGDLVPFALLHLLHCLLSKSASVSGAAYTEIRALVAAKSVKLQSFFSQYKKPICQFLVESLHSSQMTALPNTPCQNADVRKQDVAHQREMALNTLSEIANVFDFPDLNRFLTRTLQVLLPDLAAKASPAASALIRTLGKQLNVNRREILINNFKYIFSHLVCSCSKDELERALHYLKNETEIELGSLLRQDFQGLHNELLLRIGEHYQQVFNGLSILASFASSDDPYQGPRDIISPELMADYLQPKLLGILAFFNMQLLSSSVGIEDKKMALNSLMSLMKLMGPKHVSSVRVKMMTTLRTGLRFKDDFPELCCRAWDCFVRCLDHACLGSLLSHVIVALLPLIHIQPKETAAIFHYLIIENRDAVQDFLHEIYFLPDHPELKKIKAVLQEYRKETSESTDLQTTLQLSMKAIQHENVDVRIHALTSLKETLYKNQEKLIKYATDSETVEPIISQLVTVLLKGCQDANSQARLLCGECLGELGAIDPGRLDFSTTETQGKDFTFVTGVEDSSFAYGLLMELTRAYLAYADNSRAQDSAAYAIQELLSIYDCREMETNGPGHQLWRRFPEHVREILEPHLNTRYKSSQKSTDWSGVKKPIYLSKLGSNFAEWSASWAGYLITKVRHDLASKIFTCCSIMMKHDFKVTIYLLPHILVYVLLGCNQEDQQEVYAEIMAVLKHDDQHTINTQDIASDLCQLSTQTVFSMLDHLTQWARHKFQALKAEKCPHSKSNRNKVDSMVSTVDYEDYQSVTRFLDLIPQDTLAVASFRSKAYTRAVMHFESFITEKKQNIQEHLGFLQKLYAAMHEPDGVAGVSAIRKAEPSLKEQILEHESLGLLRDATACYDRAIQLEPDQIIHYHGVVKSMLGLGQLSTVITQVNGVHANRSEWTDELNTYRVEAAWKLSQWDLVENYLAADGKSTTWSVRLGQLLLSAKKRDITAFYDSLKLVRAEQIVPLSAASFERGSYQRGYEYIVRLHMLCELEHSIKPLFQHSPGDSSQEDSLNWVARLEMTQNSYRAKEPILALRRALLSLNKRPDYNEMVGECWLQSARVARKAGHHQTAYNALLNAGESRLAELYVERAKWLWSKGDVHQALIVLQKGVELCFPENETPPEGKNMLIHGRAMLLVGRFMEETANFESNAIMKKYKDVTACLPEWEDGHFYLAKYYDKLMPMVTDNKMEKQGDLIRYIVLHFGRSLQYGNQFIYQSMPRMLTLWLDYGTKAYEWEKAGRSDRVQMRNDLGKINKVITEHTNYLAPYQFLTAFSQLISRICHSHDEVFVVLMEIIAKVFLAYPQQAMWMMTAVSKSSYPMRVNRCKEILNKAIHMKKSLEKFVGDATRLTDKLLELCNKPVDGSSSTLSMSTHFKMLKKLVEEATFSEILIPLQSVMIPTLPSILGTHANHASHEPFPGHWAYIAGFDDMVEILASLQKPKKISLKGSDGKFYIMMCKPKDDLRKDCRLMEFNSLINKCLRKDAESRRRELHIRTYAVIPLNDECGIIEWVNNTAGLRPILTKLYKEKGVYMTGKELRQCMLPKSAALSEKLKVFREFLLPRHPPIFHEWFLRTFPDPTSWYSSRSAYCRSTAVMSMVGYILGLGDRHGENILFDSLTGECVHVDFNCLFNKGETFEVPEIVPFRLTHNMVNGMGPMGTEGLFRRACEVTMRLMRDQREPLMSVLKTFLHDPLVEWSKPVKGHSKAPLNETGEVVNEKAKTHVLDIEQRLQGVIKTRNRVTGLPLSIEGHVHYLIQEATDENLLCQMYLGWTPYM

`CN1CCN(c2c(NC(=O)c3c(N)nn4cc(F)cnc34)cncc2C(F)F)CC1` [I-N-111, 2-amino-N-(5-(difluoromethyl)-4-(4-methylpiperazin-1-yl)pyridin-3-yl)-6-fluoropyrazolo[1,5-a]pyrimidine-3-carboxamide] and `CC(C)(C)N1CCN(c2ccncc2NC(=O)c2c(N)nn3cc(Cl)cnc23)CC1` [I-N-34, 2-amino-N-(4-(4-(tert-butyl)piperazin-1-yl)pyridin-3-yl)-6-chloropyrazolo[1,5-a]pyrimidine-3-carboxamide] fall in the same range of Ki: 1 to 5 µM for the first, 1 to 5 µM for the second.

same assay, conditions: Ki(app), 5 nM full-length ATR, 10 μM ATP, 25° C.

`CN1CCN(c2ccncc2NC(=O)c2c(N)nn3cc(Cl)cnc23)CC1(C)C` [I-N-53, 2-amino-6-chloro-N-(4-(3,3,4-trimethylpiperazin-1-yl)pyridin-3-yl)pyrazolo[1,5-a]pyrimidine-3-carboxamide] and `CN1CCCN(c2ccncc2NC(=O)c2c(N)nn3cc(Cl)cnc23)CC1` [I-N-43, 2-amino-6-chloro-N-(4-(4-methyl-1,4-diazepan-1-yl)pyridin-3-yl)pyrazolo[1,5-a]pyrimidine-3-carboxamide] fall in the same range of Ki: 0.01 to 1 µM for the first, 0.01 to 1 µM for the second.

`CN(C)[C@@H]1CCN(C(=O)C2CCN(c3c(F)cncc3NC(=O)c3c(N)nn4cc(F)cnc34)CC2)C1` [I-G-11, (R)-2-amino-N-(4-(4-(3-(dimethylamino)pyrrolidine-1-carbonyl)piperidin-1-yl)-5-fluoropyridin-3-yl)-6-fluoropyrazolo[1,5-a]pyrimidine-3-carboxamide] and `CS(=O)(=O)C1CCN(c2c(F)cncc2NC(=O)c2c(N)nn3cc(F)cnc23)CC1` [I-N-165, 2-amino-6-fluoro-N-(5-fluoro-4-(4-(methylsulfonyl)piperidin-1-yl)pyridin-3-yl)pyrazolo[1,5-a]pyrimidine-3-carboxamide] fall in the same range of Ki: 0.01 to 1 µM for the first, 0.01 to 1 µM for the second.

`Cc1cncn1-c1ccncc1NC(=O)c1c(N)nn2cc(F)cnc12` [I-N-283, 2-amino-6-fluoro-N-(4-(5-methyl-1H-imidazol-1-yl)pyridin-3-yl)pyrazolo[1,5-a]pyrimidine-3-carboxamide] and `Cc1ncnn1-c1ccncc1NC(=O)c1c(N)nn2cc(F)cnc12` [I-N-162, 2-amino-6-fluoro-N-(4-(5-methyl-1H-1,2,4-triazol-1-yl)pyridin-3-yl)pyrazolo[1,5-a]pyrimidine-3-carboxamide] fall in the same range of Ki: 0.01 to 1 µM for the first, 0.01 to 1 µM for the second.

`Nc1nn2cc(Cl)cnc2c1C(=O)Nc1cnccc1N1CCNCC1` [I-N-88, 2-amino-6-chloro-N-(4-(piperazin-1-yl)pyridin-3-yl)pyrazolo[1,5-a]pyrimidine-3-carboxamide] and `Nc1nn2cc(Cl)cnc2c1C(=O)Nc1cnccc1N1CCN(C2CCC2)CC1` [I-N-48, 2-amino-6-chloro-N-(4-(4-cyclobutylpiperazin-1-yl)pyridin-3-yl)pyrazolo[1,5-a]pyrimidine-3-carboxamide] fall in the same range of Ki: 0.01 to 1 µM for the first, 0.01 to 1 µM for the second.

`Nc1nn2cc(F)cnc2c1C(=O)Nc1cnccc1N1CCN(C2CCOCC2)CC1` [I-N-11, 2-amino-6-fluoro-N-(4-(4-(tetrahydro-2H-pyran-4-yl)piperazin-1-yl)pyridin-3-yl)pyrazolo[1,5-a]pyrimidine-3-carboxamide] and `CN1CCN2CCN(c3ccncc3NC(=O)c3c(N)nn4cc(F)cnc34)CC2C1=O` (centres unmarked) [I-N-233, 2-amino-6-fluoro-N-(4-(8-methyl-9-oxohexahydro-1H-pyrazino[1,2-a]pyrazin-2(6H)-yl)pyridin-3-yl)pyrazolo[1,5-a]pyrimidine-3-carboxamide] fall in the same range of Ki: 0.01 to 1 µM for the first, 0.01 to 1 µM for the second.

`Cc1nc(F)ccc1-c1ccncc1NC(=O)c1c(N)nn2cc(F)cnc12` [I-C-34, 2-amino-6-fluoro-N-(6-fluoro-2-methyl-[3,4′-bipyridin]-3′-yl)pyrazolo[1,5-a]pyrimidine-3-carboxamide] and `Cc1ccnnc1-c1ccncc1NC(=O)c1c(N)nn2cc(F)cnc12` [I-C-33, 2-amino-6-fluoro-N-(4-(4-methylpyridazin-3-yl)pyridin-3-yl)pyrazolo[1,5-a]pyrimidine-3-carboxamide] fall in the same range of Ki: 0.01 to 1 µM for the first, 0.01 to 1 µM for the second.

`Nc1nn2cc(F)cnc2c1C(=O)Nc1cnccc1N1CCC(C(=O)N2CC(F)C2)CC1` [I-G-82, 2-amino-6-fluoro-N-(4-(4-(3-fluoroazetidine-1-carbonyl)piperidin-1-yl)pyridin-3-yl)pyrazolo[1,5-a]pyrimidine-3-carboxamide] and `Nc1nn2cc(F)cnc2c1C(=O)Nc1cnccc1N1CCN(CC(F)(F)F)CC1` [I-N-20, 2-amino-6-fluoro-N-(4-(4-(2,2,2-trifluoroethyl)piperazin-1-yl)pyridin-3-yl)pyrazolo[1,5-a]pyrimidine-3-carboxamide] fall in the same range of Ki: 0.01 to 1 µM for the first, 0.01 to 1 µM for the second.

`CN1CC[C@@H](Oc2ccncc2NC(=O)c2c(N)nn3cc(Cl)cnc23)C1` [I-O-63, (R)-2-amino-6-chloro-N-(4-((1-methylpyrrolidin-3-yl)oxy)pyridin-3-yl)pyrazolo[1,5-a]pyrimidine-3-carboxamide] and `Nc1nn2cc(Cl)cnc2c1C(=O)Nc1cnccc1OC1CNC1` [I-O-73, 2-amino-N-(4-(azetidin-3-yloxy)pyridin-3-yl)-6-chloropyrazolo[1,5-a]pyrimidine-3-carboxamide] fall in the same range of Ki: 0.01 to 1 µM for the first, 0.01 to 1 µM for the second.

`Nc1nn2cc(F)cnc2c1C(=O)Nc1cnccc1-n1cccn1` [I-N-26, N-(4-(1H-pyrazol-1-yl)pyridin-3-yl)-2-amino-6-fluoropyrazolo[1,5-a]pyrimidine-3-carboxamide] and `N#CCc1cnc2c(C(=O)Nc3cnccc3O[C@@H]3CCNC3)c(N)nn2c1` [I-O-87, (R)-2-amino-6-(cyanomethyl)-N-(4-(pyrrolidin-3-yloxy)pyridin-3-yl)pyrazolo[1,5-a]pyrimidine-3-carboxamide] fall in the same range of Ki: 0.01 to 1 µM for the first, 0.01 to 1 µM for the second.

`Nc1nn2cc(F)cnc2c1C(=O)Nc1cncc(F)c1N1CCN2C(=O)CCC[C@H]2C1` [I-N-279, (S)-2-amino-6-fluoro-N-(5-fluoro-4-(6-oxohexahydro-1H-pyrido[1,2-a]pyrazin-2(6H)-yl)pyridin-3-yl)pyrazolo[1,5-a]pyrimidine-3-carboxamide] and `CN1CCN2CCN(c3c(F)cncc3NC(=O)c3c(N)nn4cc(F)cnc34)CC2C1=O` (centres unmarked) [I-N-240, 2-amino-6-fluoro-N-(5-fluoro-4-(8-methyl-9-oxohexahydro-1H-pyrazino[1,2-a]pyrazin-2(6H)-yl)pyridin-3-yl)pyrazolo[1,5-a]pyrimidine-3-carboxamide] fall in the same range of Ki: 0.01 to 1 µM for the first, 0.01 to 1 µM for the second.

First: CN(C)CCOc1cc(Cl)ncc1NC(=O)c1c(N)nn2cc(Cl)cnc12 [I-O-68, 2-amino-6-chloro-N-(6-chloro-4-(2-(dimethylamino)ethoxy)pyridin-3-yl)pyrazolo[1,5-a]pyrimidine-3-carboxamide]
Second: N#CCc1cnc2c(C(=O)Nc3cnccc3O[C@@H]3CCOC3)c(N)nn2c1 [I-O-31, (R)-2-amino-6-(cyanomethyl)-N-(4-((tetrahydrofuran-3-yl)oxy)pyridin-3-yl)pyrazolo[1,5-a]pyrimidine-3-carboxamide]
The Ki of the first is higher: 0.01 to 1 µM for the first, < 0.01 µM for the second. The second binds more tightly here.

`CN1CCN(CC2CCN(c3c(F)cncc3NC(=O)c3c(N)nn4cc(F)cnc34)CC2)C(=O)C1` [I-N-193, 2-amino-6-fluoro-N-(5-fluoro-4-(4-((4-methyl-2-oxopiperazin-1-yl)methyl)piperidin-1-yl)pyridin-3-yl)pyrazolo[1,5-a]pyrimidine-3-carboxamide] and `Nc1nn2cc(F)cnc2c1C(=O)Nc1cnccc1-c1ccc(C(=O)N2CCN(C3COC3)CC2)cc1F` [I-C-51, 2-amino-6-fluoro-N-(4-(2-fluoro-4-(4-(oxetan-3-yl)piperazine-1-carbonyl)phenyl)pyridin-3-yl)pyrazolo[1,5-a]pyrimidine-3-carboxamide] fall in the same range of Ki: 0.01 to 1 µM for the first, 0.01 to 1 µM for the second.
